Source: patent US10188677B2, “Iron supplement composition” (THE D DROPS COMPANY INC., priority 2011, dated 2019)
Marks after values point to notes of the source that are not given here.

Legend:
Assay type in all cases: physicochemical
[1] = Dispersion: number of test tube inversions to achieve even dispersion of iron salt in carrier liquid; conditions: for Dispersion (# of inversions): 66 mg/mL elemental iron
Experimental: (§1) Iron salt in the form of ferrous sulfate (dried) and ferrous fumarate were investigated for dispersibility and settling behavior in a range of carrier liquids. Sufficient iron salt was added to test tubes to achieve concentrations of elemental iron equivalent to 66 mg/mL suspension (i.e., 2 mg/drop, a commercially-viable concentration for infant supplementation).
The initial preparation of dry powder iron salts into suspension was achieved by weighing the desired amount of dry powder, which was added to the liquid in a capped test tube. The combination was shaken for about two minutes, and it was then allowed to settle overnight to promote thorough particle whetting.
Suitability of the preparation for suspension was next tested by counting the number inversions of the test tube inversions required to achieve an even dispersion of particles in the carrier liquid. Each replicate began with iron salt fully settled at the bottom of the test tube.

[2] = Settling: time for iron salt particulate to show evidence of settling in carrier liquid
Experimental: Settling behavior was also tested for each carrier liquid. Test tubes of carrier liquid were loaded with either ferrous sulfate (dried) or ferrous fumarate at concentrations of 66 mg/mL of elemental iron. […] Settling was then allowed to proceed and the time required for the iron salt particulate to show evidence of settling was recorded. Evidence of settling was considered as a reduction in opacity throughout the top 1 cm of liquid in the test tube.

[3] = Drop consistency for Eurodropper dispensing
Experimental: Drop consistency was examined to determine suitability of various dispersions for Eurodropper dispensing. Preparations of various iron salts, at concentrations of 66 mg/mL, were made using medium chain triglyceride oil. Each sample was shaken vigorously and then inverted to dispense 10 drops. This was repeated until 60 drops were dispensed.
The effect of carrier liquid type on drop consistency was next examined. Preparations of ferrous fumarate (149 μm particle size) were prepared and drop consistency was measured using similar methodology to that described above.

[4] = Viscosity and density of carrier liquids
Experimental: as §1

[5] = carrier: medium chain triglyceride
[6] = carrier: medium chain triglyceride, 66 mg/mL elemental iron
[7] = carrier: olive oil, 66 mg/mL elemental iron
[8] = carrier: rapeseed oil, 66 mg/mL elemental iron
[9] = iron salt 66 mg/mL in medium chain triglyceride oil

SMILES	Dispersion (# of inversions) [1, 5]	Dispersion (# of inversions) ([1]; carrier: olive oil)	Dispersion (# of inversions) ([1]; carrier: rapeseed oil)	Dispersibility ([1]; water-based preparations)	Settling [2, 6]	Settling [2, 7]	Settling [2, 8]	Dispensing of dispersion from the Eurodropper [3, 9]	further results
O=C([O-])/C=C/C(=O)[O-].[Fe+2] [Ferrous fumarate, ferrous fumarate]	56.4 ± 10.6 # of inversions	84.0 ± 1.4 # of inversions	167.0 ± 7.0 # of inversions	very easily	16.3 ± 1.2 s	95.5 ± 4.9 s	144.0 ± 5.7 s	–	Dispersibility ([1]; carrier: medium chain triglyceride oil, relative to the other carriers): acceptably rapid; Dispersion (# of inversions) ([1]; carrier: water): 4.3 ± 0.6 # of inversions; Settling ([2]; carrier: water, 66 mg/mL elemental iron): 1.0 ± 0.5 s; Settling ([2]; in water): extremely rapid settling; Average 10 Drop Weight (mg ± SD) ([3]; ferrous fumarate 149 μm particle size, carrier: canola oil): 284.8 ± 4.7 mg; Average 10 Drop Weight (mg ± SD) ([3]; ferrous fumarate 149 μm particle size, carrier: medium chain triglyceride): 276.2 ± 3.0 mg; Average 10 Drop Weight (mg ± SD) ([3]; ferrous fumarate 149 μm particle size, carrier: olive oil): 285.8 ± 3.5 mg; Average 10 Drop Weight (mg ± SD) ([3]; ferrous fumarate 149 μm particle size, carrier: water): Occluded *; Average 10 Drop Weight (mg ± SD) ([3]; iron salt 66 mg/mL in medium chain triglyceride oil, Eurodropper, 60 drops, listed as Ferrous fumarate (Sigma, XXX μm)): 264.7 ± 10.2 mg; Average 10 Drop Weight (mg ± SD) ([3]; iron salt 66 mg/mL in medium chain triglyceride oil, Eurodropper, 60 drops, listed as Ferrous fumarate (Watson, 149 μm)): 277.0 ± 10.3 mg; Performance in the Eurodropper ([3]; regardless of carrier liquid): consistent performance
O=P([O-])([O-])OP(=O)([O-])[O-].[Fe+2].[Fe+2] [Ferrous pyrophosphate]	–	–	–	–	–	–	–	* Dispersion failed to dispense from the Eurodropper after 15 drops.	Average 10 Drop Weight (mg ± SD) ([3]; iron salt 66 mg/mL in medium chain triglyceride oil, Eurodropper, 60 drops): 266 * mg
O=S(=O)([O-])[O-].[Fe+2] [Ferrous sulfate (dried), ferrous sulfate (dried)]	7.3 ± 0.6 # of inversions	27.3 ± 4.5 # of inversions	62.0 ± 6.0 # of inversions	not at all	42.3 ± 8.5 s	213.3 ± 7.6 s	238.7 ± 5.9 s	** Dispersion failed to dispense at all from the Eurodropper because the powder clumped in the oil, and occluded opening.	–
O [Water]	–	–	–	–	–	–	–	–	Density [4]: 1 g/mL; Viscosity ([4]; @ 20° C.): 1 cP
